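Test compounds were applied to cells in 96-well plates for 48 hours at 5 doses. The concentration for 50% growth inhibition is given as GI50. TGI denotes the concentration required for complete inhibition of growth.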
Columns and labels:
Assay in all cases: NCI anticancer screen, dose series, 48 h
[1] = test system: 786-0 renal
[2] = test system: A498 renal
[3] = test system: A549 NSCLC
[4] = test system: ACHN renal
[5] = test system: BT-549 breast
[6] = test system: CAKI-1 renal
[7] = test system: CCRF-CEM leukemia
[8] = test system: COLO 205 colon
[9] = test system: DU-145 prostate
[10] = test system: EKVX NSCLC
[11] = test system: HCC-2998 colon
[12] = test system: HCT-116 colon
[13] = test system: HCT-15 colon
[14] = test system: HL-60(TB) leukemia
[15] = test system: HOP-62 NSCLC
[16] = test system: HOP-92 NSCLC
[17] = test system: HS 578T breast
[18] = test system: HT29 colon
[19] = test system: IGROV1 ovarian
[20] = test system: KM12 colon
[21] = test system: LOX IMVI melanoma
[22] = test system: M14 melanoma
[23] = test system: MALME-3M melanoma
[24] = test system: MCF7 breast
[25] = test system: MDA-MB-231 breast
[26] = test system: MDA-MB-435
[27] = test system: MOLT-4 leukemia
[28] = test system: NCI-H226 lung
[29] = test system: NCI-H23 lung
[30] = test system: NCI-H460 lung
[31] = test system: OVCAR-3 ovarian
[32] = test system: OVCAR-4 ovarian
[33] = test system: OVCAR-5 ovarian
[34] = test system: OVCAR-8 ovarian
[35] = test system: PC-3 prostate
[36] = test system: RPMI-8226 leukemia
[37] = test system: RXF 393 renal
[38] = test system: SF-268 CNS
[39] = test system: SF-539 CNS
[40] = test system: SK-MEL-2 melanoma
[41] = test system: SK-MEL-28 melanoma
[42] = test system: SK-MEL-5 melanoma
[43] = test system: SK-OV-3 ovarian
[44] = test system: SN12C renal
[45] = test system: SNB-19 CNS
[46] = test system: SNB-75 CNS
[47] = test system: SR leukemia
[48] = test system: SW-620 colon
[49] = test system: T-47D breast
[50] = test system: TK-10 renal
[51] = test system: U251 CNS
[52] = test system: UACC-257 melanoma
[53] = test system: UACC-62 melanoma
[54] = test system: UO-31 renal

Compound `COc1ccc(/C=C/C(=O)Nc2cc(/C=C\c3cc(OC)c(OC)c(OC)c3)cc(OC)c2OC)cc1OC` has a GI50 [1] of 2.98 µM, a TGI [1] greater than 100 µM and a GI50 [2] of 4.92 µM. The TGI [2] was greater than 100 µM, the GI50 [3] was 3.69 µM and the TGI [3] was greater than 100 µM. It also gave a GI50 [4] of 4.68 µM, a TGI [4] greater than 100 µM and a GI50 [5] of 3.36 µM. The TGI [5] was 57.8 µM, the GI50 [6] was 2.16 µM and the TGI [6] was greater than 100 µM. The GI50 [7] was 2.48 µM, the TGI [7] was greater than 100 µM and the GI50 [8] was 2.65 µM. It also gave a TGI [8] of 6.55 µM, a GI50 [9] of 26.6 µM and a TGI [9] greater than 100 µM. It also gave a GI50 [10] of 3.47 µM, a TGI [10] greater than 100 µM and a GI50 [11] of 6.95 µM. For the same compound, the TGI [11] was greater than 100 µM, the GI50 [12] was 3.71 µM and the TGI [12] was greater than 100 µM. For the same compound, the GI50 [13] was 3.58 µM, the TGI [13] was greater than 100 µM and the GI50 [14] was 2.3 µM. It also gave a TGI [14] of 7.66 µM, a GI50 [15] of 3.15 µM and a TGI [15] greater than 100 µM. The GI50 [16] was greater than 100 µM, the TGI [16] was greater than 100 µM and the GI50 [17] was 8.92 µM. It also gave a TGI [17] greater than 100 µM, a GI50 [18] of 3.64 µM and a TGI [18] greater than 100 µM. The GI50 [19] was 7.48 µM, the TGI [19] was greater than 100 µM and the GI50 [20] was 4.22 µM. For the same compound, the TGI [20] was greater than 100 µM, the GI50 [21] was 4 µM and the TGI [21] was greater than 100 µM. For the same compound, the GI50 [22] was 3.01 µM, the TGI [22] was greater than 100 µM and the GI50 [23] was 2.8 µM. It also gave a TGI [23] greater than 100 µM, a GI50 [24] of 2.44 µM and a TGI [24] greater than 100 µM. The GI50 [25] was 6.65 µM, the TGI [25] was greater than 100 µM and the GI50 [26] was 1.29 µM. It also gave a TGI [26] of 4.52 µM, a GI50 [27] of 3.35 µM and a TGI [27] greater than 100 µM. The GI50 [28] was 3.62 µM, the TGI [28] was greater than 100 µM and the GI50 [29] was 3.48 µM. The TGI [29] was greater than 100 µM, the GI50 [30] was 3.37 µM and the TGI [30] was greater than 100 µM. The GI50 [31] was 5.53 µM, the TGI [31] was greater than 100 µM and the GI50 [32] was 2.49 µM. For the same compound, the TGI [32] was greater than 100 µM, the GI50 [33] was 6.49 µM and the TGI [33] was greater than 100 µM. It also gave a GI50 [34] of 3.44 µM, a TGI [34] greater than 100 µM and a GI50 [35] of 3.06 µM. For the same compound, the TGI [35] was greater than 100 µM, the GI50 [36] was 2.14 µM and the TGI [36] was greater than 100 µM. For the same compound, the GI50 [37] was 2.23 µM, the TGI [37] was 6.42 µM and the GI50 [38] was 9.1 µM. For the same compound, the TGI [38] was greater than 100 µM, the GI50 [39] was 3.7 µM and the TGI [39] was greater than 100 µM. It also gave a GI50 [40] of 3.05 µM, a TGI [40] of 9.4 µM and a GI50 [41] of 2.87 µM. For the same compound, the TGI [41] was greater than 100 µM, the GI50 [42] was 1.61 µM and the TGI [42] was 3.65 µM. The GI50 [43] was 3.02 µM, the TGI [43] was 8.48 µM and the GI50 [44] was 3.96 µM. It also gave a TGI [44] greater than 100 µM, a GI50 [45] of 4.3 µM and a TGI [45] greater than 100 µM. For the same compound, the GI50 [46] was 1.68 µM, the TGI [46] was 7.46 µM and the GI50 [47] was 0.668 µM. It also gave a TGI [47] greater than 100 µM, a GI50 [48] of 5.05 µM and a TGI [48] greater than 100 µM. It also gave a GI50 [49] of 2.21 µM, a TGI [49] of 8.73 µM and a GI50 [50] of 5.13 µM. It also gave a TGI [50] greater than 100 µM, a GI50 [51] of 4.22 µM and a TGI [51] greater than 100 µM. For the same compound, the GI50 [52] was 6.5 µM, the TGI [52] was greater than 100 µM and the GI50 [53] was 2.21 µM. It also gave a TGI [53] greater than 100 µM, a GI50 [54] of 2.31 µM and a TGI [54] greater than 100 µM.
